# Assay results: US10406243B2, “Methods of treatment comprising a polyrotaxane and medicinal composition” (National University Corporation Tokyo Medical and Dental …, priority 2013, dated 2019)
# Assays:
# NPC1 cells [1] = experiment: Cholesterol removal effect, dose-response (Test Examples 5, 6, 7-1); type: cell-based, human; settings: 24 hours, concentration as cyclodextrin
# Procedure: Then, the cells were washed twice with phosphate-buffered solution, and 0.25% trypsin-EDTA solution (Gibco) was added to each well to peel the cells. The cells were collected into a 1.5 mL tube, and washed twice with phosphate buffered saline. Then, cell lysis solution (including 50 mM phosphate buffer solution, 500 mM sodium chloride, 25 mM cholic acid, and 0.5% Triton X-100) was added to each tube to lyse the cells.
# In each cell lysate, the total cholesterol was quantified by Amplex Red Cholesterol Assay Kit (Invitrogen), and the total protein was quantified by micro BCA Protein Assay Kit (Thermo Fisher Scientific). The total cellular cholesterol content is shown as total cholesterol content (nmol)/total protein content (mg).
# Similar assays to Test Example 5 were performed except that the following samples were used in order to investigate how the type of degradable linkage in polyrotaxane influences to cholesterol removal from NPC1.
# Similar assays to Test Example 5 were performed except that the following samples were used in order to investigate how the type of functional group introduced into cyclodextrins in polyrotaxane influences to cholesterol removal from NPC1.
# [2] = test system: NPC1 cells (human dermal fibroblasts derived from a Niemann-Pick type C disease patient); experiment: Accumulation of cholesterol, filipin staining observed by confocal microscope (Test Example 2); type: cell-based; settings: equivalent to 100 μM of cyclodextrin, 24 hours
# Procedure: Normal human dermal fibroblasts (hereinafter, referred to as “NHDF” or “NHDF cells”; obtained from Coriell Institute; number: GM05659) and human dermal fibroblasts derived from a Niemann-Pick type C disease patient (hereinafter, referred to as “NPC1” or “NPC1 cells”; obtained from Coriell Institute; number: GM03123) were used as follows to examine the cellular accumulation of cholesterol.
# After the incubation, the cells were fixed with 4% paraformaldehyde, and following the addition of filipin (Polysciences) in PBS adjusted to 100 μg/mL, were allowed to stand for 45 minutes at room temperature. After washing the cells three times with PBS, the localization of cholesterol was observed by using a confocal laser scanning microscope, FluoView FV10i (Olympus). Moreover, the amount of intracellular cholesterol accumulation was determined.
# In each image, the part shown in white indicates cholesterol. The amount added of each sample is equivalent to 100 μM of cyclodextrin.
# [3] = test system: NPC1 cells (human dermal fibroblasts derived from a Niemann-Pick type C disease patient); experiment: Quantification of intracellular cholesterol accumulation, Amplex Red Cholesterol Assay Kit (Test Example 2); type: cell-based; settings: equivalent to 100 μM of cyclodextrin, 24 hours
# Procedure: The quantification of the amount of intracellular cholesterol accumulation was carried out as follows.
# After the incubation the cells were lysed with cell lysis buffer to obtain cell lysates, and the intracellular cholesterol was determined by Amplex Red Cholesterol Assay Kit (Invitrogen) while the total cellular protein content was determined with Micro BCA Protein Assay Kit (Thermo Fisher Scientific). The total intracellular cholesterol content is shown as total cholesterol content (nmol)/total protein content (mg).
# In FIG. 9, in order from the left, the results on the following are shown: “the case where NPC1 cells were used and none of the samples were added (non-treated)”, “the case where NPC1 cells were used and HP-β-CD was added as a sample (HP-β-CD added)”, “the case where NPC1 cells were used and DM-β-CD was added as a sample (DM-β-CD added)”, “the case where NPC1 cells were used and HE-SS-PRX was added as a sample (HE-SS-PRX added)”, “the case where NPC1 cells were used and HE-ace-PRX was added as a sample (HE-ace-PRX added)”, “the case where NPC1 cells were used and HE-PRX was added as a sample (HE-PRX added)”, and “the case where NPC1 cells were used and HE-SS-PRX was added as a sample (HE-SS-PRX added)”, and “the case where NHDF cells were used and none of the samples were added (non-treated)”. The amount added of each sample is equivalent to 100 μM of cyclodextrin.
# NPC1 cells [4] = experiment: Observation of autophagosomes by LC3 immunostaining (Test Example 8); type: cell-based, human; settings: 24 hours, HP-β-CD 10 mM, HEE-SS-PRX equivalent to 1 mM β-CD
# Procedure: NPC1 cells were seeded on a 35 mm glass bottom dish (IWAKI) (cell count: 1.5×10^4 cells/dish), and incubated at 37° C. under a 5% CO2 atmosphere for one day, followed by the addition of the following samples and another 24-hour incubation.
# After the culturing, the cells were fixed with 4% paraformaldehyde (Wako) for 10 minutes, treated with 50 μg/ml digitonin solution (Tokyo Chemical Industry) for 5 minutes to permeabilize the plasma membrane, and blocked with 1% BSA/PBS solution for 30 minutes.
# The cells were then treated with Rabbit polyclonal anti-LC3 antibody (MBL) diluted to 1:200 with 1% BSA for one day at 4° C. After washing with PBS, the cells were stained with Alexa Fluor 488-conjugated goat anti-rabbit IgG (Abeam) (diluted to 1:1,000 with 1% BSA solution) for 30 minutes. After washing with PBS, the cells were observed by FluoView FV-10i (Olympus).
# In FIG. 16E, in order from the left, the results on the following are shown: “the case where NHDF cells were used and none of the samples were added”, “the case where NPC1 cells were used and HP-β-CD was added as a sample (amount added: 10 mM)”, “the case where NPC1 cells were used and […] was added as a sample (amount added: amount equivalent to 1 mM concentration of β-CD on HEE-SS-PRX)”.
# [5] = test system: NPC disease patient-derived NPC2 mutant dermal fibroblasts; experiment: LC3-II expression by Western blotting (Test Example 9); type: cell-based, human; settings: NPC2-mutated fibroblasts; HP-β-CD 10 mM, HEE-SS-PRX 1 mM
# Procedure: (3) NPC disease patient-derived NPC2 mutant dermal fibroblasts (obtained from Coriell Institute; number: GM18455)
# (§1) The cells were seeded on a 12-well plate (Nunc) (cell count: 1×10^5 cells/well), and incubated at 37° C. under a 5% CO2 atmosphere for one day, followed by the addition of the following samples and another 24-hour incubation.
# (§2) After the culturing, the cells were washed with PBS, and then 150 μL of RIPA buffer (Wako) containing 1% protease inhibitor cocktail (Nacalai Tesque) and 1% Phosphatase inhibitor cocktail (Nacalai Tesque) was added, and the cells were lysed by shaking for 30 minutes. The cell lysate was centrifuged for 10 minutes at 15,000 rpm, and the supernatant was collected.
# (§3) 10 μL of the supernatant and 2.5 μL of Laemmli buffer (Bio-Rad) were mixed, and applied to a 12% acrylamide gel. Then, electrophoresis was performed at 150∇ for 45 minutes. Then, proteins were transferred to a polyvinylidene fluoride (PVDF) membrane (Bio-Rad) using trans-blot Turbo Blotting System (Bio-Rad). Then, blocking was carried out with 5% skim milk solution (Wako) for an hour. […]
# (§4) Each of the relative expression levels was determined from the intensity of Western blot band. […]
# NPC1 cells [6] = experiment: Fusion of autophagosomes and lysosomes, co-localization of mRFP-LC3 and LAMP1 (Test Example 11); type: cell-based, human; settings: 24 hours, HP-β-CD 10 mM, HEE-SS-PRX equivalent to 1 mM cyclodextrin
# NPC1 cells [7] = experiment: LC3 and p62 expressions by Western blotting (Test Example 9); type: cell-based, human
# Procedure: The expressions of LC3 and p62 in the following cells were assayed by Western blotting as follows.
# as §1, §2
# 10 μL of the supernatant and 2.5 μL of Laemmli buffer (Bio-Rad) were mixed, and applied to a 12% acrylamide gel. Then, electrophoresis was performed at 150∇ for 45 minutes. Then, proteins were transferred to a polyvinylidene fluoride (PVDF) membrane (Bio-Rad) using trans-blot Turbo Blotting System (Bio-Rad). Then, blocking was carried out with 5% skim milk solution (Wako) for an hour.
# After the blocking treatment, PVDF membranes were treated at 4° C. for one day with an antibody against LC3 which is an indicator of autophagy (purchased from MBL), an antibody against p62/SQSTM1 which is a selective autophagy substrate (purchased from MBL), and an anti-β-actin antibody (Sigma-Aldrich), each diluted with 1% skim milk solution.
# After three washes with PBS, the PVDF membranes were treated for 1 hour at room temperature with HRP-conjugated goat anti-rabbit IgG diluted in 1% skim milk solution.
# After three washes with PBS, the PVDF membranes were treated with Pierce Western Blotting Substrate, and the images were taken with ImageQuant LAS 500 system (GE Healthcare Bioscience).
# For comparison, the following cases were also examined in a similar manner: a case where NHDF cells were used and none of the samples were added; a case where NHDF cells were used and Bafilomycin A1 (hereinafter, referred to as “Baf A”) was added instead of the sample; a case where NPC1 cells were used and none of the samples were added; and a case where NPC1 cells were used and Baf A was added instead of the sample.
# as §4
# [8] = test system: Fabry disease patient-derived dermal fibroblasts; experiment: LC3-II expression by Western blotting (Test Example 9); type: cell-based, human; settings: HP-β-CD 10 mM, HEE-SS-PRX 1 mM
# Procedure: (4) Fabry disease patient-derived dermal fibroblasts (obtained from Coriell Institute; number: GM00107)
# as §1, §2, §3, §4
# [9] = test system: NPC disease patient-derived cells; settings: cited from earlier work
# [10] = test system: GM1 gangliosidosis patient-derived dermal fibroblasts; experiment: LC3-II expression by Western blotting (Test Example 9); type: cell-based, human; settings: HP-β-CD 10 mM, HEE-SS-PRX 1 mM
# Procedure: (5) GM1 gangliosidosis patient-derived dermal fibroblasts (obtained from Coriell Institute; number: GM03589)
# as §1, §2, §3, §4
# NPC1 cells [11] = experiment: Observation of autolysosome formation, mRFP-EGFP-LC3 (Test Example 10); type: cell-based, human; settings: 24 hours, HP-β-CD 10 mM, HEE-SS-PRX equivalent to 1 mM cyclodextrin
# [12] = test system: Npc1-deficient mice (Npc1−/− mice); settings: cited from earlier work
# [13] = NHDF or NPC1 cells, Baf A added instead of the sample
Compound,Half maximal effective concentration (ED50) from dose-response curve for cholesterol accumulation (NPC1 cells [1]) [µM],Filipin fluorescence intensity (intracellular cholesterol) [2],Amount of intracellular cholesterol accumulation (total cholesterol/total protein) [3],Number of LC3-positive vesicles in a cell (NPC1 cells [4]),LC3-II level [5],Co-localization rate of mRFP-LC3 and LAMP1 (NPC1 cells [6]),"Expression level of p62 (NPC1 cells [7]; NPC1 cells, 24 hours, 10 mM)","Expression level of LC3-II (NPC1 cells [7]; NPC1 cells, 24 hours, HP-β-CD 0.1 to 10 mM, HEE-SS-PRX 0.01 to 1 mM)",LC3-II level [8],Amount of cholesterol in cells [9],LC3-II level [10],Number of autolysosomes (NPC1 cells [11]),Number of autophagosomes (NPC1 cells [11]),Amount of cholesterol accumulated in each tissue [12],Survival [12],LC3 level (NPC1 cells [7]; [13]),p62 level (NPC1 cells [7]; [13])
"COC[C@H]1O[C@@H]2O[C@H]3[C@H](O)[C@@H](OC)[C@@H](O[C@H]4[C@H](O)[C@@H](OC)[C@@H](O[C@H]5[C@H](O)[C@@H](OC)[C@@H](O[C@H]6[C@H](O)[C@@H](OC)[C@@H](O[C@H]7[C@H](O)[C@@H](OC)[C@@H](O[C@H]8[C@H](O)[C@@H](OC)[C@@H](O[C@H]1[C@H](O)[C@H]2OC)O[C@@H]8COC)O[C@@H]7COC)O[C@@H]6COC)O[C@@H]5COC)O[C@@H]4COC)O[C@@H]3COC [DM-β-CD, 2,6-dimethyl-β-cyclodextrin]",230,reduced,capable of removing more cholesterol than HP-β-CD,–,–,–,–,–,–,–,–,–,–,–,–,–,–
Hydroxypropyl β-cyclodextrin [HP-β-CD],2590,–,subtle reduction of cholesterol,further increased counts of LC3-positive vesicles,increase in LC3-II,low,significantly increased,increased the expression of LC3-II in a concentration dependent manner,increase in LC3-II,the amount of cholesterol in cells decreases,increase in LC3-II,no change in the number of autolysosomes,increase in the number of autophagosomes,decreases the amount of cholesterol accumulated in each tissue,extends the survival,–,–
"CO/C1=C\C(C)=C\[C@@H](C)[C@@H](O)[C@@H](C)C/C(C)=C/C=C/[C@H](OC)[C@@H]([C@@H](C)[C@@H](O)[C@H](C)[C@@]2(O)C[C@@H](O)[C@H](C)[C@@H](C(C)C)O2)OC1=O [Baf A, Bafilomycin A1]",–,–,–,–,–,–,–,–,–,–,–,–,–,–,–,significant increases,significant increases
